Data taken from paper PMC12610721, “The Action of Cannabidiol on Doxycycline Cytotoxicity in Human Cells—In Vitro Study” (Molecules, 2025).
In brackets after ≈: the same amount, converted by molar mass. Read-outs that look alike come from different tables or passages of the source.

Assays:
HEK-293 cells [1] = experiment: lysosomal activity (NRU assay)
Description: (§1) This innovative study evaluated the effects of cannabidiol (Cannabis sativa L.) on doxycycline-induced toxicity using three cell cultures: neural—SH-SY5Y, liver—HepG2, and kidney—HEK-293. […] A series of cytotoxicity assays included assessments of mitochondrial activity, lysosomal activity, cell membrane integrity, DNA synthesis, and cell proliferation. Based on the obtained results, IC50 values for doxycycline, both in monotherapy and in combination with CBD, were calculated, along with evaluations of ROS, death of cells, and morphology. The interaction between the drug and CBD was further analyzed by the combination index (CI).
(§2) This method is based on staining viable cells with neutral red, a dye that readily diffuses through the plasma membrane and accumulates in lysosomes. After incubation with the test compounds, the medium containing the substances was removed, and the cells were washed with PBS. Subsequently, 100 µL/well of neutral red (NR) solution (50 µg/mL) was added and incubated for 3 h. After incubation, the cells were washed again with PBS. The dye retained in viable cells was extracted using a solution of acetic acid, ethanol, and water (1:50:49, v/v/v). After 10 min of shaking, the absorbance of the extracted dye was measured at 540 nm using a Synergy 2 Multi-Mode Microplate Reader (BioTek® Instruments Inc., Winooski, VT, USA), with a blank as reference. Cytotoxicity was expressed as a percentage relative to the negative control.
(§3) To determine the types of interaction that occur when cells are exposed to combinations of DOX and CBD, the method established by Chou and Talalay was used in this study. The dose–effect relationships of the individual and combined test compounds were modeled biometrically using the Median-Effect Equation based on the Mass Action Law.fa/fu = (D/Dm)^m
(§4) In this isobolographic analysis, the combination index (CI) is a quantitative parameter used to evaluate the type and strength of interactions between multiple compounds. For all combinations, CI values were calculated across a range of affected fractions (Fa) from 0.05 to 0.95 (corresponding to 5–95% toxicity). CI values of 0.9–1.1, <0.9, and >1.1 indicate additive, synergistic, and antagonistic effects, respectively.
(§5) The study was conducted in three independent experiments (n = 3). […] Cytotoxicity data were analyzed using one-way analysis of variance (ANOVA), followed by Dunnett’s post hoc test to assess significance relative to the negative control. The half-maximal inhibitory concentration (IC50), representing the drug or drug–CBD mixture concentration required to inhibit cell viability by 50%, was calculated using GraphPad Prism 5.0. Statistical comparisons between IC50 values were performed using ANOVA followed by Tukey’s post hoc test. Differences were considered statistically significant at p ≤ 0.05.

HepG2 cells [2] = experiment: lysosomal activity (NRU assay)
Description: as §1, §2, §3, §4, §5

SH-SY5Y cells [3] = experiment: lysosomal activity (NRU assay); details: 72 h
Description: as §1, §2, §3, §4, §5

HEK-293 cells [4] = experiment: DNA synthesis (BrdU assay); details: for doxycycline concentration that inhibited DNA synthesis: HEK-293, BrdU, 72 h
Description: as §1
(§6) Cell proliferation was evaluated using the BrdU assay (Cell Proliferation ELISA, BrdU [colorimetric], Roche, Switzerland) according to the manufacturer’s instructions. Briefly, BrdU was incorporated into newly synthesized DNA in place of thymidine during cell division. Incorporated BrdU was detected using an anti-BrdU antibody conjugated with peroxidase. The enzymatic reaction product was quantified by measuring absorbance. Absorbance was measured at 370 nm and 492 nm using the Synergy 2 Multi-Mode Microplate Reader (BioTek® Instruments Inc., Winooski, VT, USA), with a blank as reference.
as §3, §4, §5

HepG2 cells [5] = experiment: DNA synthesis (BrdU assay)
Description: as §1, §6, §3, §4, §5

SH-SY5Y cells [6] = experiment: DNA synthesis (BrdU assay); details: 72 h
Description: as §1, §6, §3, §4, §5

HEK-293 cells [7] = experiment: cellular morphology (May–Grünwald–Giemsa staining); type: cell-based, human; details: HEK-293, 72 h
Description: (§7) This method was used to illustrate changes in cell morphology under the influence of the tested compounds. The staining was performed on Lab-Tek plates (Nunc, NY, USA). Cells at a density of 1 × 10^5 cells/mL were used. After 72 h of incubation with or without the tested drugs (control), the culture medium was removed, and the cells were stained with 1 mL of May–Grünwald dye for 3 min at room temperature. Then, 1 mL of deionized water was added to each plate. After another 3 min of incubation at room temperature, the liquid was removed. All plates were rinsed with deionized water, and the cells were subsequently stained with Giemsa dye (dilution 1:20) for 30 min at room temperature. After staining, the dye was removed, the wells were rinsed with 1 mL of deionized water, and the plates were allowed to dry. Images were captured using a light microscope (Zeiss, Oberkochen, Germany).

HepG2 cells [8] = experiment: cellular morphology (May–Grünwald–Giemsa staining); type: cell-based, human; details: HepG2, 72 h
Description: as §7

SH-SY5Y cells [9] = experiment: cellular morphology (May–Grünwald–Giemsa staining); type: cell-based, human; details: 72 h
Description: as §7

HepG2 cells [10] = experiment: series of five cytotoxicity assays (MTT, NRU, TPC, LDH, BrdU), summary; type: cell-based; details: Homo sapiens, HepG2, 72 h, across MTT, read-out: IC50 values, range depending on the cellular parameter evaluated
HEK-293 cells [11] = experiment: as above; type: cell-based; details: Homo sapiens, HEK293, 72 h, read-out: IC50 values, range depending on the cellular parameter assessed
[12] = test system: SH-SY5Y human neuroblastoma cells; set-up: method as in PMID 33429042; details: 24 h, 4 ng/mL to 4.4 µg/mL; cited from earlier work
SH-SY5Y cells [13] = test system: SH-SY5Y cells; set-up: method as in PMID 16341128; details: 24 h, cited from earlier work
HepG2 cells [14] = test system: HepG2 cells; set-up: method as in PMID 32867402; details: cited from earlier work
[15] = test system: human pluripotent stem cell-derived hepatocytes; details: cited from earlier work
renal cancer cells = test system: renal cancer cells; set-up: method as in PMID 34644207; details: cited from earlier work

C[C@H]1c2cccc(O)c2C(=O)C2=C(O)[C@]3(O)C(=O)C(C(N)=O)=C(O)[C@@H](N(C)C)[C@@H]3[C@@H](O)[C@@H]21 [DOX, doxycycline hyclate]
doxycycline concentration that inhibited lysosomal activity (HEK-293 cells [1]; HEK-293, NRU, 72 h): 6.25 µg/mL
IC50 (HEK-293 cells [1]; Homo sapiens, HEK293, 72 h): 12.7 ± 1 µg/mL
doxycycline concentration that inhibited lysosomal activity (HepG2 cells [2]; HepG2, NRU, 72 h): 25 µg/mL
IC50 (HepG2 cells [2]; Homo sapiens, HepG2, 72 h): 13.4 ± 0.9 µg/mL
IC50 (SH-SY5Y cells [3]; Homo sapiens): > 200 µg/mL
doxycycline concentration at which lysosomal activity was inhibited (SH-SY5Y cells [3]; NRU): 50 µg/mL
doxycycline concentration that inhibited DNA synthesis (HEK-293 cells [4]): 3.12 µg/mL
doxycycline concentration that inhibited DNA synthesis (HEK-293 cells [4]; listed as doxycycline): 3.125 µg/mL
IC50 (HEK-293 cells [4]; Homo sapiens, HEK293, 72 h): 8.9 ± 0.1 µg/mL
doxycycline concentration that inhibited DNA synthesis (HepG2 cells [5]; HepG2, BrdU, 72 h): 12.5 µg/mL
IC50 (HepG2 cells [5]; Homo sapiens, HepG2, 72 h): 24 ± 0.4 µg/mL
doxycycline concentration that inhibited DNA synthesis (SH-SY5Y cells [6]; BrdU): 12.5 µg/mL
IC50 (SH-SY5Y cells [6]; Homo sapiens): 15.6 ± 0.7 µg/mL
morphological changes (HEK-293 cells [7]): cell aggregation followed by detachment from the adhesive surface
morphological changes (HepG2 cells [8]): cell aggregation followed by detachment from the adhesive surface
morphological changes (SH-SY5Y cells [9]): cell aggregation followed by detachment from the adhesive surface
IC50 (HepG2 cells [10]): 13.4 to 200 µg/mL (≈ 30.2 to 450 µM)
IC50 (HEK-293 cells [11]): 8.9 to 30.4 µg/mL (≈ 20 to 68.4 µM)
effect on production of reactive oxygen species (ROS) [12]: protective effect
effect on cell density (SH-SY5Y cells [13]; 1 µg/mL): minimal
effect on cell density (SH-SY5Y cells [13]; higher concentrations up to 4 µg/mL): decreased SH-SY5Y cell density
concentration causing about a 50% reduction in cell viability (HepG2 cells [14]; HepG2, converted value in brackets): 10.3 to 13.0 µg/mL
IC50 (HepG2 cells [14]; HepG2, read-out: concentration causing about a 50% reduction in cell viability): 20 to 25 µM
effect on mitochondrial membrane [15]: depolarized the mitochondrial membrane
concentration that significantly inhibited protein synthesis and mitochondrial complex activity (renal cancer cells; cells of neoplastic origin): 5 µg/mL
concentration that induced apoptosis (renal cancer cells; renal cancer cells): 10 µg/mL
